Laboratory results: the NIST ThermoML archive (doi:10.1016/j.jct.2011.08.017)
Values joined by “and” are separate entries in the source; they are usually repeats but may differ in a detail not shown here. Identical values can stand only once.

How the values were obtained:
[1] = Molar enthalpy of transition or fusion; settings: Crystal; DSC
[2] = Crystal; for Normal melting temperature: DTA

Clc1nc[nH]c1Cl [4,5-dichloroimidazole]
Settings | Molar enthalpy of transition or fusion [kcal/mol] | Normal melting temperature [°C]
[1] | 4.21 | –
[2] | – | 183.6

[2], Closed cell (Static) method
Settings | vapor or sublimation pressure
337.91 K | 0.00048 kPa
339.87 K | 0.00059 kPa
341.87 K | 0.00072 kPa
341.88 K | 0.00071 kPa
343.83 K | 0.00086 kPa
345.84 K | 0.00104 kPa
345.85 K | 0.00104 kPa
347.81 K | 0.00125 kPa
349.81 K | 0.00148 kPa and 0.00151 kPa
351.78 K | 0.0018 kPa
355.75 K | 0.00258 kPa
357.73 K | 0.00306 kPa
359.72 K | 0.00366 kPa
361.71 K | 0.00434 kPa
363.69 K | 0.00513 kPa
365.67 K | 0.00607 kPa
367.66 K | 0.00722 kPa
369.64 K | 0.00841 kPa
371.62 K | 0.00998 kPa
373.6 K | 0.01172 kPa
375.6 K | 0.01368 kPa
377.56 K | 0.01597 kPa
379.54 K | 0.0184 kPa
381.52 K | 0.02175 kPa
383.45 K | 0.02487 kPa
385.49 K | 0.02923 kPa
387.38 K | 0.03334 kPa
389.45 K | 0.03896 kPa
391.33 K | 0.04433 kPa
393.4 K | 0.05168 kPa
395.37 K | 0.0589 kPa

N#Cc1nc[nH]c1C#N [4,5-dicyanoimidazole]
Settings | Molar enthalpy of transition or fusion [kcal/mol] | Normal melting temperature [°C]
[1] | 5.4 | –
[2] | – | 176

[2], Calculated from knudsen effusion weight loss
Settings | vapor or sublimation pressure
383.16 K | 0.000153 kPa and 0.00015 kPa
385.16 K | 0.000182 kPa and 0.000184 kPa and 0.000183 kPa
387.12 K | 0.000223 kPa and 0.000222 kPa
389.16 K | 0.000267 kPa and 0.000264 kPa
391.16 K | 0.000325 kPa
393.12 K | 0.000386 kPa and 0.000383 kPa and 0.000389 kPa
395.16 K | 0.000462 kPa and 0.000464 kPa
397.16 K | 0.000556 kPa
399.14 K | 0.000668 kPa and 0.000664 kPa and 0.000666 kPa
401.16 K | 0.000791 kPa and 0.000782 kPa and 0.000796 kPa
403.15 K | 0.000954 kPa and 0.000931 kPa and 0.000932 kPa
